Test results reported in PubChem BioAssay AID1963871 (Molecular Pharmacology Branch, DTP, NCI, 2024).

Tested on: KRAS-mutant PDC multicell tumor spheroid viability
Assay: Anticancer human tumor 521955-158-R2-J5-PDC patient-derived pancreatic carcinoma cell line growth inhibition [KRAS2]
Conditions: for IC50: curve of first compound; for viability, T/C: stronger effect = lower value
Method in brief: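 Combination screen of spheroid viability in tumor-cell co-cultures with endothelial (HUVEC) and mesenchymal stem cell stroma. Each agent was tested in half-log dilutions, topping at clinical Cmax or at 10 microM without a known Cmax.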

[1] = second compound 0.0316 µM, first compound 0.0316 µM
[2] = second compound 0.0316 µM, first compound 0.1 µM
[3] = second compound 0.0316 µM, first compound 0.316 µM
[4] = second compound 0.0316 µM, first compound 1 µM
[5] = second compound 0.0316 µM, first compound 3.16 µM
[6] = second compound 0.0316 µM, first compound 10 µM
[7] = second compound 0.1 µM, first compound 0.0316 µM
[8] = second compound 0.1 µM, first compound 0.1 µM
[9] = second compound 0.1 µM, first compound 0.316 µM
[10] = second compound 0.1 µM, first compound 1 µM
[11] = second compound 0.1 µM, first compound 3.16 µM
[12] = second compound 0.1 µM, first compound 10 µM
[13] = second compound 0.316 µM, first compound 0.0316 µM
[14] = second compound 0.316 µM, first compound 0.1 µM
[15] = second compound 0.316 µM, first compound 0.316 µM
[16] = second compound 0.316 µM, first compound 1 µM
[17] = second compound 0.316 µM, first compound 3.16 µM
[18] = second compound 0.316 µM, first compound 10 µM
[19] = second compound 1 µM, first compound 0.0316 µM
[20] = second compound 1 µM, first compound 0.1 µM
[21] = second compound 1 µM, first compound 0.316 µM
[22] = second compound 1 µM, first compound 1 µM
[23] = second compound 1 µM, first compound 3.16 µM
[24] = second compound 1 µM, first compound 10 µM
[25] = second compound 3.16 µM, first compound 0.0316 µM
[26] = second compound 3.16 µM, first compound 0.1 µM
[27] = second compound 3.16 µM, first compound 0.316 µM
[28] = second compound 3.16 µM, first compound 1 µM
[29] = second compound 3.16 µM, first compound 3.16 µM
[30] = second compound 3.16 µM, first compound 10 µM
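Note: viability read after seven days of drug exposure.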

COc1cc(Nc2ncc3c(n2)-c2ccc(Cl)cc2C(c2c(F)cccc2OC)=NC3)ccc1C(=O)O + C=CC(=O)N1CCN(c2nc(OCC3CCCN3C)nc3c2CCN(c2cccc4cccc(C)c24)C3)CC1CC#N
IC50 (second compound 0.0316 µM): < 0.0316 µM | IC50 (second compound 0.1 µM): < 0.0316 µM | IC50 (second compound 0.316 µM): < 0.0316 µM | IC50 (second compound 1 µM): < 0.0316 µM | IC50 (second compound 3.16 µM): < 0.0316 µM | viability, T/C [1]: 41.5% | viability, T/C [2]: 33.7% | viability, T/C [3]: 50.5% | viability, T/C [4]: 46.2% | viability, T/C [5]: 38.5% | viability, T/C [6]: 40.5% | viability, T/C [7]: 51.1% | viability, T/C [8]: 28.1% | viability, T/C [9]: 38.4% | viability, T/C [10]: 36.3% | viability, T/C [11]: 38.9% | viability, T/C [12]: 38.2% | viability, T/C [13]: 48.5% | viability, T/C [14]: 27.2% | viability, T/C [15]: 31.6% | viability, T/C [16]: 38.8% | viability, T/C [17]: 33.8% | viability, T/C [18]: 42.2% | viability, T/C [19]: 28.8% | viability, T/C [20]: 28.7% | viability, T/C [21]: 29.1% | viability, T/C [22]: 27.7% | viability, T/C [23]: 26.9% | viability, T/C [24]: 32% | viability, T/C [25]: 1.52% | viability, T/C [26]: 1.29% | viability, T/C [27]: 0.17% | viability, T/C [28]: 6.1% | viability, T/C [29]: 1.44% | viability, T/C [30]: 0.25%

COc1cc2nccc(Oc3ccc(NC(=O)C4(C(=O)Nc5ccc(F)cc5)CC4)cc3)c2cc1OC + C=CC(=O)N1CCN(c2nc(OCC3CCCN3C)nc3c2CCN(c2cccc4cccc(C)c24)C3)CC1CC#N
IC50 (second compound 0.0316 µM): 8.2 µM | IC50 (second compound 0.1 µM): 7.66 µM | IC50 (second compound 0.316 µM): 6.6 µM | IC50 (second compound 1 µM): 2.68 µM | IC50 (second compound 3.16 µM): < 0.0316 µM | viability, T/C [1]: 111% | viability, T/C [2]: 112% | viability, T/C [3]: 126% | viability, T/C [4]: 124% | viability, T/C [5]: 94.6% | viability, T/C [6]: 40.7% | viability, T/C [7]: 105% | viability, T/C [8]: 108% | viability, T/C [9]: 118% | viability, T/C [10]: 116% | viability, T/C [11]: 94.1% | viability, T/C [12]: 36.7% | viability, T/C [13]: 89.9% | viability, T/C [14]: 113% | viability, T/C [15]: 108% | viability, T/C [16]: 97.9% | viability, T/C [17]: 82.7% | viability, T/C [18]: 31.7% | viability, T/C [19]: 86.2% | viability, T/C [20]: 95% | viability, T/C [21]: 89.7% | viability, T/C [22]: 81.9% | viability, T/C [23]: 44.7% | viability, T/C [24]: 14.9% | viability, T/C [25]: 19.4% | viability, T/C [26]: 26.7% | viability, T/C [27]: 17.7% | viability, T/C [28]: 4.13% | viability, T/C [29]: 0.96% | viability, T/C [30]: 0.26%

O=C(c1cc(Cc2n[nH]c(=O)c3ccccc23)ccc1F)N1CCN(C(=O)C2CC2)CC1 + C=CC(=O)N1CCN(c2nc(OCC3CCCN3C)nc3c2CCN(c2cccc4cccc(C)c24)C3)CC1CC#N
IC50 (second compound 0.0316 µM): > 10 µM | IC50 (second compound 0.1 µM): > 10 µM | IC50 (second compound 0.316 µM): > 10 µM | IC50 (second compound 1 µM): 6.45 µM | IC50 (second compound 3.16 µM): < 0.0316 µM | viability, T/C [1]: 104% | viability, T/C [2]: 101% | viability, T/C [3]: 99.4% | viability, T/C [4]: 85.1% | viability, T/C [5]: 80.2% | viability, T/C [6]: 61.3% | viability, T/C [7]: 95.2% | viability, T/C [8]: 94.9% | viability, T/C [9]: 93.7% | viability, T/C [10]: 92.2% | viability, T/C [11]: 78.5% | viability, T/C [12]: 54% | viability, T/C [13]: 94.2% | viability, T/C [14]: 92.8% | viability, T/C [15]: 84.8% | viability, T/C [16]: 82.9% | viability, T/C [17]: 78.3% | viability, T/C [18]: 59.1% | viability, T/C [19]: 100% | viability, T/C [20]: 101% | viability, T/C [21]: 85% | viability, T/C [22]: 73.3% | viability, T/C [23]: 70% | viability, T/C [24]: 39.5% | viability, T/C [25]: 4.24% | viability, T/C [26]: 1.68% | viability, T/C [27]: 1.74% | viability, T/C [28]: 1.67% | viability, T/C [29]: 2.07% | viability, T/C [30]: 0.32%
